Assay results reported in ChEMBL document CHEMBL3351883, “β-Agarofurans and Sesquiterpene Pyridine Alkaloids from Maytenus spinosa” (J Nat Prod, 2014).
The source made the active and inactive calls. No cut-off for these calls is given here.

How the values were obtained:
[1] = system: Human immunodeficiency virus 1; assay: Antiviral activity against HIV1 infected in human C8166 cells after 72 hrs by p24 antigen based ELISA; type: functional
[2] = Cytotoxicity against human C8166 cells assessed as cell viability by MTT assay; type: cell-based; details: read-out: Activity

Row | Compound | inhibition [1] | further results
1 | CC(=O)OC[C@]12[C@H](OC(C)=O)C(=O)[C@@H]3[C@@H](OC(C)=O)[C@@]14O[C@@]3(C)COC(=O)c1ncccc1C[C@H](C)[C@H](C)C(=O)O[C@H]([C@@H](OC(C)=O)[C@@H]2OC(C)=O)[C@H]4C | inactive | –
2 | CC(=O)OC[C@]12[C@H](OC(C)=O)[C@@H](OC(C)=O)[C@@H]3[C@@H](OC(=O)c4cccnc4)[C@@]14O[C@@]3(C)COC(=O)c1cnccc1CCC(C)C(=O)O[C@@H]([C@H](OC(C)=O)[C@@H]2OC(C)=O)[C@]4(C)O (stereo partly specified) | inactive | –
3 | CC(=O)OC[C@@]12[C@H](OC(C)=O)[C@H](OC(C)=O)[C@@H]3[C@@H](OC(=O)c4ccccc4)[C@@]14O[C@@]3(C)COC(=O)c1cccnc1CC[C@H](C)C(=O)O[C@@H]([C@H](OC(C)=O)[C@@H]2OC(C)=O)[C@]4(C)O | inactive | –
4 | CC(=O)O[C@@H]1[C@@H]2[C@@H](OC(C)=O)[C@]3(OC2(C)C)[C@H](C)C[C@H](OC(C)=O)[C@H](OC(=O)c2ccccc2)[C@@]3(C)[C@@H]1OC(C)=O | inactive | –
5 | CCC(C)C(=O)O[C@@H]1[C@H](OC(C)=O)[C@@H]2[C@@H](OC(C)=O)[C@]3(OC2(C)C)[C@H](C)C[C@H](OC(C)=O)[C@H](OC(=O)c2ccccc2)[C@@]13C (stereo partly specified) | inactive | –
6 | CC(=O)O[C@@H]1[C@@H]2[C@@H](OC(C)=O)[C@]3(OC2(C)C)[C@H](C)C[C@H](O)[C@H](OC(C)=O)[C@@]3(C)[C@@H]1OC(=O)c1ccccc1 | inactive | –
7 | CC(=O)OC[C@]12[C@H](OC(C)=O)[C@H](OC(=O)c3ccccc3)[C@@H]3[C@@H](OC(C)=O)[C@]1(OC3(C)C)[C@H](C)C[C@H](OC(C)=O)[C@@H]2OC(C)=O | inactive | –
8 | CC(=O)OC[C@]12[C@H](OC(C)=O)[C@@H](OC(C)=O)[C@@H]3[C@@H](OC(C)=O)[C@@]14O[C@@]3(C)COC(=O)c1cnccc1CCC(C)C(=O)O[C@@H]([C@H](OC(C)=O)[C@@H]2OC(C)=O)[C@]4(C)O (stereo partly specified) | inactive | –
9 | CC(=O)OC[C@]12[C@H](OC(C)=O)[C@@H](OC(C)=O)[C@@H]3[C@@H](OC(C)=O)[C@@]14O[C@@]3(C)COC(=O)c1cccnc1CCC(C)C(=O)O[C@@H]([C@H](OC(C)=O)[C@@H]2OC(C)=O)[C@]4(C)O (stereo partly specified) | inactive | –
10 | CC(=O)OC[C@]12[C@H](OC(C)=O)[C@@H](O)[C@@H]3[C@@H](O)[C@@]14O[C@@]3(C)COC(=O)c1cnccc1CCC(C)C(=O)O[C@@H]([C@H](OC(C)=O)[C@@H]2OC(C)=O)[C@]4(C)O (stereo partly specified) | inactive | –
11 | CCCCCCCCCCCC(=O)O[C@@H]1[C@H]2[C@H](OC(C)=O)[C@@H](OC(C)=O)[C@]3(COC(C)=O)[C@@H](OC(C)=O)[C@@H](OC(C)=O)[C@@H]4OC(=O)C(C)CCc5ccncc5C(=O)OC[C@]2(C)O[C@]13[C@@]4(C)O (stereo partly specified) | inactive | –
12 | CC(=O)O[C@@H]1[C@H]2[C@@H](OC(=O)c3ccccc3)[C@@H](OC(=O)c3ccccc3)[C@]3(C)[C@@H](OC(C)=O)[C@@H](OC(=O)c4ccccc4)C[C@@H](C)[C@@]13OC2(C)C | inactive | –
13 | CC(=O)OC[C@]12[C@H](OC(C)=O)[C@@H](OC(C)=O)[C@@H]3[C@@H](OC(=O)c4ccco4)[C@@]14O[C@@]3(C)COC(=O)c1cnccc1CCC(C)C(=O)O[C@@H]([C@H](OC(C)=O)[C@@H]2OC(C)=O)[C@]4(C)O (stereo partly specified) | inactive | –
14 | CC(=O)OC[C@]12[C@H](OC(C)=O)[C@@H](OC(C)=O)[C@@H]3C(=O)[C@@]14O[C@@]3(C)COC(=O)c1cnccc1CCC(C)C(=O)O[C@@H]([C@H](OC(C)=O)[C@@H]2OC(C)=O)[C@]4(C)O (stereo partly specified) | inactive | –
15 | CC(=O)OC[C@]12[C@@H](OC(C)=O)[C@@H](OC(=O)c3ccccc3)[C@@H]3C[C@]1(OC3(C)C)[C@H](C)C[C@H](OC(C)=O)[C@@H]2OC(C)=O | – | inhibition (INH) [1]: 64.4%; viability [2]: 96%
16 | CC(=O)OC[C@]12[C@H](OC(=O)c3ccccc3)[C@@H](OC(C)=O)[C@@H]3[C@@H](OC(C)=O)[C@]1(OC3(C)C)[C@H](C)C[C@H](O)[C@@H]2OC(C)=O | inactive | –
17 | CC(=O)OC[C@]12[C@H](OC(C)=O)[C@H](OC(C)=O)[C@@H]3[C@@H](OC(C)=O)[C@@]14O[C@@]3(C)COC(=O)c1cnccc1CCC(C)C(=O)O[C@@H]([C@H](OC(C)=O)[C@@H]2OC(C)=O)[C@]4(C)O (stereo partly specified) | inactive | –
18 | CC(=O)OC[C@]12[C@H](OC(C)=O)[C@@H](OC(C)=O)[C@@H]3[C@@H](O)[C@@]14O[C@@]3(C)COC(=O)c1cnccc1CCC(C)C(=O)O[C@@H]([C@H](OC(C)=O)[C@@H]2OC(C)=O)[C@]4(C)O (stereo partly specified) | inactive | –
19 | CC(=O)OC[C@]12[C@H](OC(C)=O)[C@H](OC(C)=O)[C@@H]3[C@@H](OC(C)=O)[C@@]14O[C@@]3(C)COC(=O)c1cccnc1CCC(C)C(=O)O[C@@H]([C@H](OC(C)=O)[C@@H]2OC(C)=O)[C@]4(C)O (stereo partly specified) | inactive | –
20 | CC(=O)OC[C@]12[C@H](OC(C)=O)[C@@H](OC(C)=O)[C@@H]3[C@@H](OC(=O)N(C)C)[C@@]14O[C@@]3(C)COC(=O)c1cnccc1CCC(C)C(=O)O[C@@H]([C@H](OC(C)=O)[C@@H]2OC(C)=O)[C@]4(C)O (stereo partly specified) | inactive | –
21 | CC(=O)O[C@@H]1[C@H]2[C@@H](OC(=O)c3ccccc3)[C@@H](OC(=O)c3ccccc3)[C@]3(C)[C@@H](OC(C)=O)[C@@H](O)C[C@@H](C)[C@@]13OC2(C)C | inactive | –
22 | CC(=O)OC[C@]12[C@H](OC(C)=O)C(=O)[C@@H]3[C@@H](O)[C@@]14O[C@@]3(C)COC(=O)c1cnccc1CCC(C)C(=O)O[C@@H]([C@H](OC(C)=O)[C@@H]2OC(C)=O)[C@]4(C)O (stereo partly specified) | inactive | –
23 | CCC(C)C(=O)O[C@@H]1[C@@H]2[C@@H](OC(C)=O)[C@]3(OC2(C)C)[C@H](C)C[C@H](O)[C@H](OC(C)=O)[C@@]3(COC(C)=O)[C@@H]1OC(=O)c1ccccc1 (stereo partly specified) | inactive | –
24 | CC(=O)OC[C@]12[C@H](OC(=O)c3ccccc3)[C@H](OC(=O)c3ccccc3)[C@@H]3[C@@H](OC(C)=O)[C@]1(OC3(C)C)[C@H](C)C[C@H](O)[C@@H]2OC(C)=O | inactive | –
25 | CC(=O)OC[C@]12[C@H](OC(C)=O)[C@@H](OC(C)=O)[C@@H]3[C@@H](OC(=O)c4ccc(Br)cc4)[C@@]14O[C@@]3(C)COC(=O)c1cnccc1CCC(C)C(=O)O[C@@H]([C@H](OC(C)=O)[C@@H]2OC(C)=O)[C@]4(C)O (stereo partly specified) | inactive | –
